Laboratory results from US10703796B2, “CD44v6-derived cyclic peptides for treating cancers and angiogenesis related diseases” (AMCURE GMBH, priority 2014, dated 2020).
Bridges are numbered along the chain shown (N, C = ends). Where no end group is shown, it is not given here. [ ]: non-standard residue; d: D form.

Experiments:
Type in all cases: cell-based, human
[1] = system: Erk; assay: HGF-induced activation of Erk in Panc1 cells (blot of activated Erk vs total Erk); settings: peptide 30 nM for 5 min at 37° C. prior to HGF 10 ng/ml for 5 min
Protocol: (§1) Human adenocarcinoma cells, Panc1, were seeded at 2×10^5 cells per well in a 6-well plate. The day after seeding the cells, they were starved for 24 h. The following day, the cells were treated as indicated with either alga1 or D3alga1, a control peptide (N-A-A-A-E (SEQ ID NO: 37)) at a concentration of 30 nM for 5 min at 37° C. prior to induction with HGF (10 ng/ml) at 37° C. for 5 min. Results are given in FIG. 3 (A: alga1; B: D3alga1).
(§2) Human adenocarcinoma cells, Panc1, were seeded at 2×10^5 cells per well in a 6-well plate. The day after seeding, the cells were starved for 24 h. The following day, the cells were treated as indicated with either D1alga1, D2alga1 or D3alga1, a human CD44v6 14mer (h14mer) or control peptide (N-A-A-A-E (SEQ ID NO: 37)) at a concentration of 30 nM for 5 min at 37° C. prior to induction with HGF (10 ng/ml) at 37° C. for 5 min.

[2] = system: c-Met; assay: HGF-induced activation of c-Met in Panc1 cells (blot of activated Met vs total Met); settings: peptide 30 nM for 5 min at 37° C. prior to HGF 10 ng/ml for 5 min
Protocol: as §1, §2

[3] = system: Panc 1 cells; assay: Wound healing assay, Example 9 (FIG. 15); settings: 500 nM, HGF 100 ng/ml, photos up to 48 hours after induction
Protocol: Cell migration is connected to angiogenesis where cells need to migrate in order to form new blood vessels. Angiogenesis is related to cancer metastasis.
Panc 1 cells were seeded in 6-well plates at a concentration of 3×10^5 cells per well and were allowed to adhere and form a confluent monolayer. After a starving period of 24 hours, a scratch was inserted using a sterile pipette tip. Medium was aspirated to remove scratched cells and replaced by new starving medium. containing reagents as indicated at a concentration of […] tested for their blocking quality.
The following reagents were added to the medium at a concentration of 500 nM to test their blocking efficiency: D3-epga1, D4-epga1, D2-epal1, D3-epal1, D4-epal1, D3-alga1, D3-alga2, D4-alga2, D5-alga2, D6-alga3, Epga-1, Epal-1, Alga-2 and Alga-3. After 30 min incubation at 37° C., growth factor HGF was added to induce migration (HGF 100 ng/ml). Photos of the cells were taken immediately after scratch (Day 1), 24 hours (Day 2) and 48 hours (D3) after induction using a Canon Power Shot G12 digital camera.

Which results are given for “D1alga1: cyclic CD44v6 5mer containing a D-amino acid at position 1 ([dK]RWHE; lactam N-5)”?
activation of Erk [1]: blocks activation of c-Met and Erk; activation of c-Met [2]: blocks activation of c-Met

Which “blocking of cell migration” value [3] does the source give for “cy[εKRWHEα]γ] (K[dR]WHE; lactam 1-C; also: cyclised per cy[εKRWHEα]γ], linkage unclear) [D2-epal1]” here?
The value was “Most efficient blocking of cell migration”.

For “D2alga1: cyclic CD44v6 5mer containing a D-amino acid at position 2 (K[dR]WHE; lactam N-5)”, which “activation of Erk” value [1] is on record?
The value was “blocks activation of c-Met and Erk”.

And the “activation of c-Met” value [2]?
The value was “blocks activation of c-Met”.

With “D3-epga1: cyclic 5 mer, ep/ga cyclisation, D-amino acid at position 3 per naming scheme (FIG. 13) (KR[dW]HE; lactam 1-5)” as the substance, how does the “blocking of cell migration” value [3] read?
Its value is “efficient in blocking cell migration”.

For “cy[αKGNRWHEγ] (KGNRW[dH]E; lactam N-7) [D6-alga3, cyclisation via N-terminal amino group of K and side chain carboxyl group of E, H is a D-amino acid]”, which “blocking of cell migration” value [3] is on record?
Its value is “Most efficient blocking of cell migration”.

How did the “blocking of cell migration” value [3] turn out when cy[αKNRWHEγ] (lactam N-6) [Alga-2] was run?
The value was “Most efficient blocking of cell migration”.
